Holding throughout (test): relative viability (nuclei count vs DMSO), 5 days (fraction); higher = more cells survive
Compound in assay [1]: COC1=CC=C(C=C1)CN2C=CC3=C2C=C(C=C3)C(=O)NO + COc1cc2c(Oc3ccc(NC(=O)C4(C(=O)Nc5ccc(F)cc5)CC4)cc3F)ccnc2cc1OCCCN1CCOCC1 [Foretinib] (partner 0.25 µM)
The essentials: (§1)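 Relative viability was taken as the ratio of nuclei in treated wells to nuclei in vehicle wells. Lung cancer cell lines in 1536-well plates received compounds by pin tool one day after seeding, either one drug alone or a fixed anchor-drug dose plus five library-drug doses (not always all listed) in √10 steps. Nuclei were counted on 4× images after 5 days of treatment, and values are medians of duplicate plates.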

Compound in assay [2]: COC1=CC=C(C=C1)CN2C=CC3=C2C=C(C=C3)C(=O)NO + CS(=O)(=O)CCNCc1ccc(-c2ccc3ncnc(Nc4ccc(OCc5cccc(F)c5)c(Cl)c4)c3c2)o1 [Lapatinib] (partner 2 µM)
The essentials:
as §1

Compound in the assay “Veliparib + OSI-027”: C[C@]1(c2nc3c(C(N)=O)cccc3[nH]2)CCCN1 [Veliparib] + COc1cccc2cc(-c3nc([C@H]4CC[C@H](C(=O)O)CC4)n4ncnc(N)c34)[nH]c12 [OSI-027] (partner 0.5 µM)
The method, boiled down: as §1

Compound in the assay “Veliparib + AZD7762”: C[C@]1(c2nc3c(C(N)=O)cccc3[nH]2)CCCN1 [Veliparib] + NC(=O)Nc1cc(-c2cccc(F)c2)sc1C(=O)N[C@H]1CCCNC1 [AZD7762] (partner 0.2 µM)
The method, boiled down: as §1

As for NCI-H2405, the relative viability was found to be 1.01 in assay [1] (first compound 0.08 µM); 1.06 in assay [1] (first compound 0.253 µM); 1.07 in assay [1] (first compound 0.8 µM); 1.09 in assay [1] (first compound 2.53 µM); 1.02 in assay [1] (first compound 8 µM); 0.523 in assay [2] (first compound 0.08 µM). For the same cell line, the relative viability in assay [2] (first compound 0.253 µM) stood at 1.03; in assay [2] (first compound 0.8 µM), 1.11; in assay [2] (first compound 2.53 µM) it was 1.17; in assay [2] (first compound 8 µM), 0.871; in the assay with Veliparib + OSI-027 (first compound 0.02 µM), 0.547; in the assay with Veliparib + OSI-027 (first compound 0.06325 µM), 0.595. Also, the relative viability was 0.619 with Veliparib + OSI-027 (first compound 0.2 µM); 0.654 with Veliparib + OSI-027 (first compound 0.6325 µM); 0.365 with Veliparib + OSI-027 (first compound 2 µM); 0.772 with Veliparib + AZD7762 (first compound 0.02 µM); 0.81 with Veliparib + AZD7762 (first compound 0.2 µM); 0.734 in the assay with Veliparib + AZD7762 (first compound 0.6325 µM). The relative viability in the assay with Veliparib + AZD7762 (first compound 2 µM) worked out at 0.738.

Turning to NCI-H3122, the relative viability was found to be 0.942 in assay [1] (first compound 0.08 µM); 1 in assay [1] (first compound 0.253 µM); 0.913 in assay [1] (first compound 0.8 µM); 0.993 in assay [1] (first compound 2.53 µM); 0.947 in assay [1] (first compound 8 µM); 0.959 in assay [2] (first compound 0.08 µM). For the same cell line, the relative viability was 0.934 in assay [2] (first compound 0.253 µM); 1.03 in assay [2] (first compound 0.8 µM); 1.04 in assay [2] (first compound 2.53 µM); 0.959 in assay [2] (first compound 8 µM); 0.829 in the assay with Veliparib + OSI-027 (first compound 0.02 µM); 0.923 in the assay with Veliparib + OSI-027 (first compound 0.06325 µM). The relative viability in the assay with Veliparib + OSI-027 (first compound 0.2 µM) was found to be 0.935; with Veliparib + OSI-027 (first compound 0.6325 µM), 0.96; with Veliparib + OSI-027 (first compound 2 µM), 0.991; in the assay with Veliparib + AZD7762 (first compound 0.02 µM) it was 0.937; with Veliparib + AZD7762 (first compound 0.06325 µM) it was 1.01; with Veliparib + AZD7762 (first compound 0.2 µM), 0.986. Also, the relative viability is 0.971 with Veliparib + AZD7762 (first compound 0.6325 µM) and 1.01 with Veliparib + AZD7762 (first compound 2 µM).

For PC-3 [JPC-3], the relative viability in assay [1] (first compound 0.08 µM) came out at 1; in assay [1] (first compound 0.253 µM), 1.04; in assay [1] (first compound 0.8 µM) it was 1.09; in assay [1] (first compound 2.53 µM) it was 1.08; in assay [1] (first compound 8 µM), 0.962; in assay [2] (first compound 0.08 µM), 0.423. Further, the relative viability in assay [2] (first compound 0.253 µM) was 0.486; in assay [2] (first compound 0.8 µM), 0.493; in assay [2] (first compound 2.53 µM), 0.49; in assay [2] (first compound 8 µM) it was 0.478; with Veliparib + OSI-027 (first compound 0.02 µM), 0.773; in the assay with Veliparib + OSI-027 (first compound 0.06325 µM), 0.74. For the same cell line, the relative viability in the assay with Veliparib + OSI-027 (first compound 0.2 µM) is 0.813; with Veliparib + OSI-027 (first compound 0.6325 µM) it was 0.755; in the assay with Veliparib + OSI-027 (first compound 2 µM), 0.755; with Veliparib + AZD7762 (first compound 0.02 µM) it was 0.82; in the assay with Veliparib + AZD7762 (first compound 0.2 µM), 0.875; in the assay with Veliparib + AZD7762 (first compound 0.6325 µM), 0.898. For the same cell line, the relative viability with Veliparib + AZD7762 (first compound 2 µM) stood at 0.773.

PC-14: the relative viability in assay [1] (first compound 0.08 µM) was found to be 0.701; in assay [1] (first compound 0.253 µM), 0.917; in assay [1] (first compound 0.8 µM), 0.991; in assay [1] (first compound 2.53 µM), 1.04; in assay [1] (first compound 8 µM), 0.996; in assay [2] (first compound 0.08 µM), 0.199. In addition, the relative viability came to 0.349 in assay [2] (first compound 0.253 µM); 0.38 in assay [2] (first compound 0.8 µM); 0.384 in assay [2] (first compound 2.53 µM); 0.373 in assay [2] (first compound 8 µM); 0.292 in the assay with Veliparib + OSI-027 (first compound 0.02 µM); 0.774 in the assay with Veliparib + OSI-027 (first compound 0.06325 µM). Also, the relative viability with Veliparib + OSI-027 (first compound 0.2 µM) is 0.82; with Veliparib + OSI-027 (first compound 0.6325 µM), 0.743; with Veliparib + OSI-027 (first compound 2 µM), 0.866; in the assay with Veliparib + AZD7762 (first compound 0.02 µM), 0.357; in the assay with Veliparib + AZD7762 (first compound 0.06325 µM) it was 0.313; with Veliparib + AZD7762 (first compound 0.2 µM), 0.335. Further, the results for the relative viability in the assay with Veliparib + AZD7762 (first compound 0.6325 µM) and with Veliparib + AZD7762 (first compound 2 µM) were 0.385 and 0.327, respectively.

RERF-LC-KJ: the relative viability in assay [1] (first compound 0.08 µM) stood at 0.639; in assay [1] (first compound 0.253 µM) it was 0.862; in assay [1] (first compound 0.8 µM), 0.915; in assay [1] (first compound 2.53 µM), 0.947; in assay [1] (first compound 8 µM), 0.917; in assay [2] (first compound 0.08 µM) it was 0.428. The relative viability in assay [2] (first compound 0.253 µM) stood at 0.881; in assay [2] (first compound 0.8 µM), 0.924; in assay [2] (first compound 2.53 µM) it was 0.95; in assay [2] (first compound 8 µM), 0.869; with Veliparib + OSI-027 (first compound 0.02 µM) it was 0.39; in the assay with Veliparib + OSI-027 (first compound 0.06325 µM), 0.455. Besides, the relative viability came to 0.634 with Veliparib + OSI-027 (first compound 0.2 µM); 0.538 with Veliparib + OSI-027 (first compound 0.6325 µM); 0.57 in the assay with Veliparib + OSI-027 (first compound 2 µM); 1.07 in the assay with Veliparib + AZD7762 (first compound 0.02 µM); 0.896 with Veliparib + AZD7762 (first compound 0.06325 µM); 0.999 with Veliparib + AZD7762 (first compound 0.2 µM). Besides, the relative viability with Veliparib + AZD7762 (first compound 0.6325 µM) was determined as 0.933; with Veliparib + AZD7762 (first compound 2 µM) it was 1.03.

For the origin of these results see the supplement of paper PMC10307832.
